Assay results as given in patent US4168206A, “Impregnated disk method for testing antifungal susceptibility” (Philadelphia College of Osteopathic Medicine, priority 1977, dated 1979).

Key:
Geotrichum candidum [1] = experiment: MIC by broth dilution method, Geotrichum candidum; type: cell-based; conditions: broth dilution method
Text: (§1) The preparation of the nutrient media, the antifungal agents and the fungi to be tested in the present invention are similar to those reported in S. Shadomy and A. Espinel-Ingroff, "Susceptibility Testing Of Antifungal Agents", Ch. 63, pp. 569-574 in E. H. Lennett, E. H. Spaulding, and J. P. Truant, Eds., Manual Of Clinical Microbiology, 2nd Ed., American Society for Microbiology, Washington, D.C. (1974). This publication describes the susceptibility testing of antifungal agents, namely, amphotericin B, nystatin and 5-fluoro-cytosine (5-FC), by the "broth dilution method" and the "semisolid agar dilution method". At pages 570-571, it is stated:
(§2) In 10 duplicate runs with each strain tested, the variation in minimum inhibitory concentration averaged ±0.05 μg/ml.
(§3) *Broth dilution method conducted in accordance with S. Shadomy and E.
(§4) Espinel-Ingroff, "Susceptibility Testing of Antifungal Agents", Ch. 63,
(§5) pp. 569-574 in E. H. Spaulding and J. P. Truant, Eds., Manual Of Clinical
(§6) Microbiology, 2nd Ed., American Society for Microbiology, Washington, […]

Trichosporon sp. [2] = experiment: MIC by impregnated disk method, Trichosporon sp.; type: cell-based; conditions: Trichosporon sp.; disk method
Experimental: (§7) Stock solutions of the antifungal agents to be tested are preferably prepared by diluting the antifungal agents in the proper nutrient medium. It is presently preferred to prepare dilutions in 10 ml of the proper medium to give the following final concentrations when applied to the disks (all quantities in micrograms per milliliter): 0.05, 0.08, 0.09, 0.1; 0.1 increment increases to 0.9, 1.0; 0.5 increment increases to 10.0; and 12.0, 14.0, 20.0, 25.0 and 50.0. Disks have been prepared by placing 0.05 ml of the above dilutions of antifungal agent containing medium on 6.5 mm diameter disks in 0.01 or 0.02 ml increments. The impregnated disks are then allowed to dry at a temperature preferably below about 10° C. […] The disks may also be dried by a lyophilization or freeze drying process.
(§8) To perform the tests in accordance with the present inventions, disks impregnated with various concentrations of antifungal agent and nutrient medium and a control disk impregnated only with the corresponding nutrient medium are placed on the fungus to be tested which has been applied to the non-nutrient medium. The disks are the inoculated non-nutrient medium are then incubated at a suitable temperature for a sufficient time to promote growth of the fungus. Any temperature is suitable if it will promote growth of the fungus without adversely affecting the fungus or the activity of the antifungal agent or agents tested. The time of incubation can be determined by observing the extent of growth around the control disk. […] The zones of growth or inhibition around the disks were read at 6, 12, 24, 36 and 48 hours after the disks were placed on the tested fungus.
(§9) The minimum inhibitory concentration is defined as the lowest concentration of antifungal agent which inhibits visible growth. […]
(§10) Several test disks and a control disk were placed in each petri dish containing the inoculated agar. The disks and petri dishes were then incubated at 29° C. and the minimum inhibitory concentration of the various concentrations of the antifungal agents were read at 6, 12, 24, 36 and 48 hours. […]

Candida albicans [3] = experiment: MIC by broth dilution method, Candida albicans; type: cell-based
Text: as §1, §2, §3, §4, §5, §6

Saccharomyces cerevisiae [4] = experiment: MIC by impregnated disk method, Saccharomyces cerevisiae; type: cell-based
Experimental: as §7, §8
(§11) The minimum inhibitory concentration is defined as the lowest concentration of antifungal agent which inhibits visible growth. The disks containing concentrations of antifungal agents below the minimum inhibitory concentration show circumscribed growth of the fungus around the disk. Disks containing concentrations of antifungal agent at or above the minimum inhibitory concentration show no circumscribed growth.
(§12) Clinical isolates of various fungi listed in Table 1 were obtained from different patients diagnosed as having fungal infections. The fungal inocula were prepared by using a 24-48 hour cultures grown in yeast nitrogen base containing 1% glucose and 0.15% asparagine. After centrifuging, the supernatant was removed, the sedimented cells were washed twice with sterile distilled water and a cell suspension was adjusted to 80% transmission at 520 nm using a Beckman DB-GT grating spectrophotometer.
(§13) Sterile liquified 2% purified agar was placed in petri dishes and allowed to harden. The surface of the agar was inoculated with a sterile cotton swab saturated with a suspension of an organism. The uniformly swabbed plates were then allowed to dry.
(§14) Disks were prepared using the dilutions described above for amphotericin B, nystatin and 5-fluorocytosine. 0.05 ml of the dilutions of each antifungal agent diluted with the appropriate nutrient medium were pipetted on 6.5 mm diameter disks. The disks were dried at 4° C. after each application. Control disks were also prepared.
(§15) Several test disks and a control disk were placed in each petri dish containing the inoculated agar. The disks and petri dishes were then incubated at 29° C. and the minimum inhibitory concentration of the various concentrations of the antifungal agents were read at 6, 12, 24, 36 and 48 hours.
as §2

Trichosporon sp. [5] = experiment: MIC by broth dilution method, Trichosporon sp.; type: cell-based; conditions: Trichosporon sp.; broth dilution method
Text: as §1, §2, §3, §4, §5, §6

Saccharomyces cerevisiae [6] = experiment: MIC by broth dilution method, Saccharomyces cerevisiae; type: cell-based
Text: as §1, §2, §3, §4, §5, §6

Torulopsis glabrata [7] = experiment: MIC by broth dilution method, Torulopsis glabrata; type: cell-based; conditions: Torulopsis glabrata; broth dilution method
Text: as §1, §2, §3, §4, §5, §6

C. parapsilosis [8] = experiment: MIC by broth dilution method, Candida parapsilosis; type: cell-based
Text: as §1, §2, §3, §4, §5, §6

Cryptococcus neoformans [9] = experiment: MIC by impregnated disk method, Cryptococcus neoformans; type: cell-based
Experimental: as §7, §8, §11, §12, §13, §14, §15, §2

Cryptococcus neoformans [10] = experiment: MIC by broth dilution method, Cryptococcus neoformans; type: cell-based
Text: as §1, §2, §3, §4, §5, §6

C. tropicalis [11] = experiment: MIC by impregnated disk method, Candida tropicalis; type: cell-based; conditions: C. tropicalis; disk method
Experimental: as §7, §8, §9, §10

C. tropicalis [12] = experiment: MIC by broth dilution method, Candida tropicalis; type: cell-based; conditions: C. tropicalis; broth dilution method
Text: as §1, §2, §3, §4, §5, §6

Torulopsis glabrata [13] = experiment: MIC by impregnated disk method, Torulopsis glabrata; type: cell-based; conditions: Torulopsis glabrata; disk method
Experimental: as §7, §8, §9, §10

Geotrichum candidum [14] = experiment: MIC by impregnated disk method, Geotrichum candidum; type: cell-based; conditions: disk method
Experimental: as §7, §8, §9, §10

C. parapsilosis [15] = experiment: MIC by impregnated disk method, Candida parapsilosis; type: cell-based
Experimental: as §7, §8, §11, §12, §13, §14, §15, §2

Candida albicans [16] = experiment: MIC by impregnated disk method, Candida albicans; type: cell-based
Experimental: as §7, §8, §11, §12, §13, §14, §15, §2

[17] = cited from earlier work
[18] = Saccharomyces cerevisiae isolate 1
[19] = Cryptococcus neoformans isolate 1

## C[C@@H]1[C@H](O)[C@@H](C)/C=C/C=C/CC/C=C/C=C/C=C/C=C/C(O[C@H]2O[C@H](C)[C@@H](O)[C@H](N)[C@@H]2O)CC2O[C@](O)(CC(O)C(O)CCC(O)CC(O)CC(O)CC(=O)O[C@H]1C)CC(O)C2C(=O)O (stereo partly shown) [Nystatin, nystatin]
Geotrichum candidum [1]
  Minimum Inhibitory Concentration, Broth: 4.50 µg/mL
Trichosporon sp. [2]
  Minimum Inhibitory Concentration, Disk: 3.50 µg/mL
Candida albicans [3]; isolate 1
  Minimum Inhibitory Concentration, Broth: 1.50 µg/mL
Candida albicans [3]; isolate 2
  Minimum Inhibitory Concentration, Broth: 5.00 µg/mL
Candida albicans [3]; isolate 3
  Minimum Inhibitory Concentration, Broth: 1.50 µg/mL
Candida albicans [3]; isolate 4
  Minimum Inhibitory Concentration, Broth: 3.50 µg/mL
Candida albicans [3]; isolate 5
  Minimum Inhibitory Concentration, Broth: 4.00 µg/mL
Candida albicans [3]; isolate 6
  Minimum Inhibitory Concentration, Broth: 6.00 µg/mL
Candida albicans [3]; isolate 7
  Minimum Inhibitory Concentration, Broth: 0.20 µg/mL
Saccharomyces cerevisiae [4]; S. cerevisiae isolate 2
  Minimum Inhibitory Concentration, Disk: 1.00 µg/mL
Saccharomyces cerevisiae [4]; [18]
  Minimum Inhibitory Concentration, Disk: 2.00 µg/mL
Trichosporon sp. [5]
  Minimum Inhibitory Concentration, Broth: 3.00 µg/mL
Saccharomyces cerevisiae [6]; S. cerevisiae isolate 2
  Minimum Inhibitory Concentration, Broth: 2.00 µg/mL
Saccharomyces cerevisiae [6]; [18]
  Minimum Inhibitory Concentration, Broth: 2.50 µg/mL
Torulopsis glabrata [7]
  Minimum Inhibitory Concentration, Broth: 4.50 µg/mL
C. parapsilosis [8]; C. parapsilosis isolate 1
  Minimum Inhibitory Concentration, Broth: 4.50 µg/mL
C. parapsilosis [8]; C. parapsilosis isolate 2
  Minimum Inhibitory Concentration, Broth: 5.00 µg/mL
Cryptococcus neoformans [9]; C. neoformans isolate 2
  Minimum Inhibitory Concentration, Disk: 3.00 µg/mL
Cryptococcus neoformans [9]; [19]
  Minimum Inhibitory Concentration, Disk: 2.00 µg/mL
Cryptococcus neoformans [10]; C. neoformans isolate 2
  Minimum Inhibitory Concentration, Broth: 3.00 µg/mL
Cryptococcus neoformans [10]; [19]
  Minimum Inhibitory Concentration, Broth: 2.50 µg/mL
C. tropicalis [11]
  Minimum Inhibitory Concentration, Disk: 5.50 µg/mL
C. tropicalis [12]
  Minimum Inhibitory Concentration, Broth: 6.00 µg/mL
Torulopsis glabrata [13]
  Minimum Inhibitory Concentration, Disk: 3.00 µg/mL
Geotrichum candidum [14]
  Minimum Inhibitory Concentration, Disk: 5.00 µg/mL
C. parapsilosis [15]; C. parapsilosis isolate 1
  Minimum Inhibitory Concentration, Disk: 3.50 µg/mL
C. parapsilosis [15]; C. parapsilosis isolate 2
  Minimum Inhibitory Concentration, Disk: 4.50 µg/mL
Candida albicans [16]; isolate 1
  Minimum Inhibitory Concentration, Disk: 1.50 µg/mL
Candida albicans [16]; isolate 2
  Minimum Inhibitory Concentration, Disk: 4.50 µg/mL
Candida albicans [16]; isolate 3
  Minimum Inhibitory Concentration, Disk: 1.50 µg/mL
Candida albicans [16]; isolate 4
  Minimum Inhibitory Concentration, Disk: 3.50 µg/mL
Candida albicans [16]; isolate 5
  Minimum Inhibitory Concentration, Disk: 4.00 µg/mL
Candida albicans [16]; isolate 6
  Minimum Inhibitory Concentration, Disk: 6.50 µg/mL
Candida albicans [16]; isolate 7
  Minimum Inhibitory Concentration, Disk: 0.30 µg/mL
[17]; in the presence of acid
  stability in acid: unstable in the presence of acid
[17]; upon incubation
  thermal stability: subject to thermal destruction upon incubation
[17]; water
  solubility in water: insoluble in water
